The target of the assay is T1, 15-hydroxyprostaglandin dehydrogenase [NAD(+)] (Homo sapiens, UniProt P15428).
T1 sequence (P15428 whole entry): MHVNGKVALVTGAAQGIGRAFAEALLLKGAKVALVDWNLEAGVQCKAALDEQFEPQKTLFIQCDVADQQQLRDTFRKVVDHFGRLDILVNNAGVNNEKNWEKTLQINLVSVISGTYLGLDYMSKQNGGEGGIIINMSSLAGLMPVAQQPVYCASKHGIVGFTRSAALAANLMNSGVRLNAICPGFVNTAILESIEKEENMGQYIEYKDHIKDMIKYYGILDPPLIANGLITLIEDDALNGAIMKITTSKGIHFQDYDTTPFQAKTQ
As to the kind of experiment: Inhibition of human 15-PGDH expressed in Escherichia coli using PGE2 as substrate and NAD+ as coenzyme assessed as formation of NADH by spectrophotometric analysis.

The structures appear in SMILES notation.

A word on the IC50: it is the point on the concentration scale where inhibition reaches its midpoint. `O=C1N=C(O)SC1=Cc1ccc(OCCC2CCCCC2)cc1`: the IC50 was found to be 51 nM.

The values are drawn from BindingDB's records for doi:10.1021/jm200390u (Chosun University, 2011).
